ChEMBL document CHEMBL3351379, “Dihydropyrrolo[2,3-d]pyrimidines: Selective Toll-Like Receptor 9 Antagonists from Scaffold Morphing Efforts” (ACS Med Chem Lett, 2014)
Converted amounts (≈) assume the structure as drawn.

Assays:
Toll-like receptor 9 = target: T1, Toll-like receptor 9 (Homo sapiens, UniProt Q9NR96); assay: Antagonist activity at human TLR9 transfected in HEK293 cells after 6 hrs by NF-kappaB luciferase reporter assay; assay type: cell-based
T1 sequence (Q9NR96 whole entry): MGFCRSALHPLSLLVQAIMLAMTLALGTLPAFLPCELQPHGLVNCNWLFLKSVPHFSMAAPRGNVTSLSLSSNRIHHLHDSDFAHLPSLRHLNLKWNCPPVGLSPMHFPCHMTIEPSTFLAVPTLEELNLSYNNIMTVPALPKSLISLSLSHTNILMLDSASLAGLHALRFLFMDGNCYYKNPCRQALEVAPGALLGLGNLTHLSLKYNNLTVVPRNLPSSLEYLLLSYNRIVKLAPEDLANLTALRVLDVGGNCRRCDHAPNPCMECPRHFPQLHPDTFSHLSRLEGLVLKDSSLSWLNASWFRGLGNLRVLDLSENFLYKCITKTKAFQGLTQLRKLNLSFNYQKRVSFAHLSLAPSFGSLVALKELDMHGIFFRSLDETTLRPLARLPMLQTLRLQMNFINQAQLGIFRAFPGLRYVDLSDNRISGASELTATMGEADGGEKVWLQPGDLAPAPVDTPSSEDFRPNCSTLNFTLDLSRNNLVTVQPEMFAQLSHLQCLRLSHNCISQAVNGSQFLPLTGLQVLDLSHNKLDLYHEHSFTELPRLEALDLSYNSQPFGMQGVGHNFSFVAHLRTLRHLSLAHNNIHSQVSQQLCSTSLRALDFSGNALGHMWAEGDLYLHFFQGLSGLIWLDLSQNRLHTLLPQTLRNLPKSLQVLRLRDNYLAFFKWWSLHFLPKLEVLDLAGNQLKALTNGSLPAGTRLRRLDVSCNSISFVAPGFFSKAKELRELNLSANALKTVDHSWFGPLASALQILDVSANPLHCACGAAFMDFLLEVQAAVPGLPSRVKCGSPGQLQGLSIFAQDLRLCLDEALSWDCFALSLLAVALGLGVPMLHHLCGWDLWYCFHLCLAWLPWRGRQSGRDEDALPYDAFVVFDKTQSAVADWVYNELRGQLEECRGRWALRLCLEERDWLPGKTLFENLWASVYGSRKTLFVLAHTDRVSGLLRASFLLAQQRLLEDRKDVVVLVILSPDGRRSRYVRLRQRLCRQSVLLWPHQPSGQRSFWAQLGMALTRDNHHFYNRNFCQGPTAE

HEK293 = assay: Selectivity ratio of IC50 for human TLR7 transfected in HEK293 cells to IC50 for human TLR9 transfected in HEK293 cells; assay type: cell-based
Homo sapiens = species on record: Homo sapiens; assay: Metabolic stability in human assessed per mg protein; assay type: ADME
[1] = Aqueous solubility of the compound at pH 7.4; assay type: physicochemical
Splenocyte = assay: Inhibition of CpG-induced IL-6 production in C57BL/6 mouse splenocytes after 24 hrs by ELISA; assay type: functional, cell-based; conditions: C57BL/6, Splenocyte
Mus musculus [2] = assay: Inhibition of IL-6 production in iv dosed C57BL/6 mouse plasma compound administered 1 hr prior to CpG1826 treatment measured after 2 hrs by ELISA; assay type: functional; conditions: C57BL/6, Plasma
Toll-like receptor 8 = target: T2, Toll-like receptor 8 (Homo sapiens, UniProt Q9NR97); assay: Antagonist activity at human TLR8 transfected in HEK293 cells after 6 hrs by NF-kappaB luciferase reporter assay; assay type: cell-based
T2 sequence (Q9NR97 whole entry): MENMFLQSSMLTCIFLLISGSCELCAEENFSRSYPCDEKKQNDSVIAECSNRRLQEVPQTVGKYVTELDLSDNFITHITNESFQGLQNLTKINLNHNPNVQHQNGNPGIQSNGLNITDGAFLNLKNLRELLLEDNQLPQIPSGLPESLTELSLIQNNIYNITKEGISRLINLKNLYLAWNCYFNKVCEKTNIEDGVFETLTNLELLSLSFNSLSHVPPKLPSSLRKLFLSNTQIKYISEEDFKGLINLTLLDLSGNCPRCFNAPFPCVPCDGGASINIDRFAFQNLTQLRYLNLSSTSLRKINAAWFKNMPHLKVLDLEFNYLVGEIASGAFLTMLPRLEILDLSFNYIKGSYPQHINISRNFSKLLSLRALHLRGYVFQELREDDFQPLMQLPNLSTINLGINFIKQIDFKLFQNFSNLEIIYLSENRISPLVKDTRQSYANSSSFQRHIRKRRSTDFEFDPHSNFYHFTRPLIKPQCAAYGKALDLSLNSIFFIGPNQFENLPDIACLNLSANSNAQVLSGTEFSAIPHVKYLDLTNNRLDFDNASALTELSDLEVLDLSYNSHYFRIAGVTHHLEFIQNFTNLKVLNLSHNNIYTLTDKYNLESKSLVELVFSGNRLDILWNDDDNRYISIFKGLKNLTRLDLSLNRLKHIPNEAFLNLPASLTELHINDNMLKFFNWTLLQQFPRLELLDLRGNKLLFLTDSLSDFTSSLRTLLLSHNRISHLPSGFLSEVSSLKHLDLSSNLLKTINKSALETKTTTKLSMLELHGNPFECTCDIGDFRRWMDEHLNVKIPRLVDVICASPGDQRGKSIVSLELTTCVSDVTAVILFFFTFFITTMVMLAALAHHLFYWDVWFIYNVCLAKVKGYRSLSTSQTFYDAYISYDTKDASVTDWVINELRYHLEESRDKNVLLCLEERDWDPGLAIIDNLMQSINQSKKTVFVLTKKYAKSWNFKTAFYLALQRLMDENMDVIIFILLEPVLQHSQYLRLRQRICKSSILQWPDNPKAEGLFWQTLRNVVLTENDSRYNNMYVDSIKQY

Toll-like receptor 7 = target: T3, Toll-like receptor 7 (Homo sapiens, UniProt Q9NYK1); assay: Antagonist activity at human TLR7 transfected in HEK293 cells assessed as hydrolysis of pNPP after 24 hrs by SEAP reporter assay; assay type: cell-based
T3 sequence (Q9NYK1 whole entry): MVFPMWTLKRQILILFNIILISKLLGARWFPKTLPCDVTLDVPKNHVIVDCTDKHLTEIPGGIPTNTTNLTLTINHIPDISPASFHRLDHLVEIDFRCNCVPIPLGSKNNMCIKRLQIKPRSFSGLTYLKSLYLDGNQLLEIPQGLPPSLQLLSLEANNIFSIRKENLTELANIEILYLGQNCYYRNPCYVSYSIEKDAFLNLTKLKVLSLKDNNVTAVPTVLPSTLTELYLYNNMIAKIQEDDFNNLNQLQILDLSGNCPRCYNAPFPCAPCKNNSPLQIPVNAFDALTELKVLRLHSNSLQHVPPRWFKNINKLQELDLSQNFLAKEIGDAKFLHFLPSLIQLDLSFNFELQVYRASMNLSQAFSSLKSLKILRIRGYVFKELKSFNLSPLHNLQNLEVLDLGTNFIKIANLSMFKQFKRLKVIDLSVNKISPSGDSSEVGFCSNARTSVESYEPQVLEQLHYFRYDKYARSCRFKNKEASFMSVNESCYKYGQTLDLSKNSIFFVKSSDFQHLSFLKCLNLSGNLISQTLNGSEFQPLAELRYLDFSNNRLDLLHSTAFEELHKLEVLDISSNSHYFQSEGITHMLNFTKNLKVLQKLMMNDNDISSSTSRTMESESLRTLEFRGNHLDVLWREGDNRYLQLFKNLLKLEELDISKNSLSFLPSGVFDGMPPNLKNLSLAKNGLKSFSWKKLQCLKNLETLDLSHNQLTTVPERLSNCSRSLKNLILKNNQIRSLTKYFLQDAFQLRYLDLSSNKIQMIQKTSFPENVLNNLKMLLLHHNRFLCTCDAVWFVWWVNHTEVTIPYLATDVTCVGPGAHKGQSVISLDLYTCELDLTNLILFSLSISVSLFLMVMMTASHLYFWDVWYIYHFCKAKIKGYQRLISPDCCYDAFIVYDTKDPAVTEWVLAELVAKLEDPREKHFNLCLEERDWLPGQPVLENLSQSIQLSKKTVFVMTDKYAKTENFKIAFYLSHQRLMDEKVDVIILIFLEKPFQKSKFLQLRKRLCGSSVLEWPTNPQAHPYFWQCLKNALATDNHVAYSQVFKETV

PBMC = assay: Inhibition of CpG-induced IL-6 production in human PBMC after 24 hrs by ELISA; assay type: functional, cell-based
Mus musculus [3] = assay: Inhibition of IL-6 production in iv dosed C57BL/6 mouse peritoneal lavage fluid compound administered 1 hr prior to CpG1826 treatment measured after 2 hrs by ELISA; assay type: functional, organism-based

Structure (SMILES) | IC50 (Toll-like receptor 9) | other results
CN1CCN(c2ccc(-c3ncc4c(n3)N(CCN3CCOCC3)CC4)cc2)CC1 | 73 nM | 
CN1CCN(c2ccc(-c3nc4c(c(NCCN5CCOCC5)n3)CCCC4)cc2)CC1 | 27 nM | Ratio IC50 (HEK293): 71
CN1CCN(c2ccccc2-c2ncc3c(n2)N(CCCN2CCOCC2)CC3)CC1 | 56 nM | 
Cc1cnc(-c2ccc(N3CCN(C)CC3)cc2)nc1NCCN1CCOCC1 | 120 nM | 
COCCN1CCN(c2ccc(-c3ncc4c(n3)N(CCCN3CCOCC3)CC4)cc2)CC1 | 28 nM | 
CN1CCN(c2ccc(-c3ncc4c(n3)N(CCCN3CCOCC3)CC4)cc2)C(=O)C1 | > 1000 nM | 
CN1CCN(c2ccc(-c3nccc(NCCN4CCOCC4)n3)cc2)CC1 | 190 nM | 
OCCN1CCN(c2ccc(-c3ncc4c(n3)N(CCCN3CCOCC3)CC4)cc2)CC1 | 13 nM | IC50 (Splenocyte): 74 nM; solubility [1]: > 10000 µg/mL; ED50 (Mus musculus [2]): 0.8 mg/kg; IC50 (Toll-like receptor 8): > 10000 nM; Ratio IC50 (HEK293): 75; IC50 (Toll-like receptor 7): 970 nM; IC50 (PBMC): 244 nM; inhibition (Mus musculus [3]): Dose-dependent effect
CN1CCN(c2ccc(-c3nc4c(c(NCCN5CCOCC5)n3)COCC4)cc2)CC1 | 190 nM | 
CN1CCN(c2cccc(-c3ncc4c(n3)N(CCCN3CCOCC3)CC4)c2)CC1 | 56 nM | 
COc1cc2nc(-c3ccc(N4CCN(C)CC4)cc3)nc(NCCN3CCOCC3)c2cc1OC | 4.6 nM | solubility [1]: 120 µg/mL (≈ 244 µM)
Cc1nc(-c2ccc(N3CCN(C)CC3)cc2)nc(NCCN2CCOCC2)c1C | 35 nM | Stability (Homo sapiens): 69 µL/min/mg
CN1CCN(c2ccc(-c3nc(N(C)C)c4c(n3)N(CCCN3CCCC3)CC4)cc2)CC1 | 73 nM | 
CN1CCN(c2ccc(-c3ncc4c(n3)N(CCCN3CCCC3)CC4)cc2)CC1 | 3.9 nM | Stability (Homo sapiens): 71 µL/min/mg

Second part, led by results:

IC50 (Toll-like receptor 9) | Structure (SMILES) | other results
3.5 nM | Cc1nc(-c2ccc(N3CCN(C)CC3)cc2)nc2c1CCN2CCCN1CCCC1 | Stability (Homo sapiens): 35 µL/min/mg
11 nM | CN1CCN(c2ccc(-c3ncc4c(n3)N(CCCCN3CCOCC3)CC4)cc2)CC1 | 
84 nM | CN1CCN(c2ccc(-c3nc(Cl)c4c(n3)N(CCCN3CCCC3)CC4)cc2)CC1 | 
16 nM | Cc1nc(-c2ccc(N3CCN(C)CC3)cc2)nc2c1CCN2CCCN1CCOCC1 | Stability (Homo sapiens): < 10 µL/min/mg
11 nM | Cc1nc(-c2ccc(N3CCN(C)CC3)cc2)nc2c1CCN2CCN1CCCC1 | 
8.6 nM | CN1CCN(c2ccc(-c3ncc4c(n3)N(CCCN3CCOCC3)CC4)cc2)CC1 | solubility [1]: 1100 µg/mL (≈ 2600 µM); Ratio IC50 (HEK293): > 50
20 nM | Cc1nc(-c2ccc(N3CCN(C)CC3)cc2)nc2c1CCN2CCN1CCOCC1 | Stability (Homo sapiens): < 10 µL/min/mg; Ratio IC50 (HEK293): 93
120 nM | COc1nc(-c2ccc(N3CCN(C)CC3)cc2)nc2c1CCN2CCCN1CCCC1 | 
